Assay results taken from patent US20250353816A1, “QUINOLINES AS MODULATORS OF POLRMT” (Pretzel Therapeutics, Inc., priority 2024, published 2025).

What follows are compounds tested against POLRMT (Homo sapiens (Human), UniProt O00411) (assay: homogeneous TR-FRET assay of mitochondrial transcription (inhibition of POLRMT)). Conditions: 7.5 nM POLRMT, 15 nM TFB2M, 30 nM TFAM, 60 minutes at 37° C.
Type: biochemical
Experimental: The inhibitory activity of the compounds of the present invention against POLRMT were determined by assays based on Bergbrede, T., et al., “An adaptable high-throughput technology enabling the identification of specific transcription modulators,” SLAC Discov., 22, 378-386 (2017).
The ability of some compounds of the present invention to inhibit POLRMT were determined in a homogeneous TR-FRET Assay using high-throughput screening in a 384-well plate format. This method is used to monitor the activity of mitochondrial transcription through measurement of its product, a 407 bp long RNA transcript. Detection of the product is facilitated by hybridization of two DNA-oligonucleotide probes to specific and adjacent sequences within the RNA product sequence. Upon annealing of the probes, two fluorophores are coupled directly to an acceptor nucleotide probe (ATTO647, 5′), or introduced via a coupled streptavidin with a biotinylated donor nucleotide probe (Europium cryptate) that is brought into sufficient proximity to serve as a fluorescence-donor-acceptor pair. Thus, a FRET signal at 665 nm is generated upon excitation at 340 nm.
Proteins used as transcription factors (POLRMT: NP_005026.3, TFAM: NP_003192.1, TFB2M: NP_071761.1) are diluted from their stocks to working concentrations of 1 μM, 20 μM and 4 μM respectively, in a dilution buffer containing 20 mM Tris-HCl (pH 8.0), 200 mM NaCl, 10% (v/v) glycerol, 1 mM Dithiothreitol (DTT), 0.5 mM EDTA.
DNA template is a pUC18 plasmid with the mitochondrial light strand promotor sequence (1-477) cloned between HindIII and BamHI sites. The DNA template is restriction linearized proximal to the promotor 3′-end (pUC-LSP).
The reaction mixture (10 uL) containing 7.5 nM POLRMT, 15 nM of TFB2M, 30 nM of TFAM, 0.5 nM of DNA template and 500 μM nucleotide triphosphate mix (NTPs) in a reaction buffer (containing 10 mM Tris-HCl (pH 7.5), 10 mM MgCl2, 40 mM NaCl, 10 mM DTT, 0.005% (w/v) Tween-20, 160 units/ml Rnase inhibitor and 0.1 mg/mL BSA) are dispensed to compounds in microplates, using a Thermo Multidrop® dispenser, and incubated at 37° C. in a VWR INCU-Line incubator for 60 minutes after mixing. No nucleotide triphosphate mix is added to negative control samples. Microplates with compounds to be tested in the assay are prepared from 10 mM compound stocks in 100% DMSO, equal amounts of DMSO without any compound are added to positive control and negative control samples.
During the incubation, a mix of the detection reagents is prepared in a buffer such that the enzymatic reaction is terminated due to chelating of Mg-ions and increased ionic strength, containing 50 mM Tris-HCl (pH 7.5), 700 mM NaCl, 20 mM EDTA, and 0.01% (w/v) Tween-20. Europium-streptavidin is pre-incubated with a 200-fold molar excess of a random sequence oligonucleotide to block unspecific binding of oligo, for two hours at ambient temperature in the dark. Afterwards, the blocked Europium-streptavidin is kept on ice until use.
At the end of the enzymatic reaction time, 5 μL detection oligo mix in the detection buffer is added, and assay plates are mixed and kept at ambient temperature for one hour, protected from light. The concentration of the Acceptor nucleotide oligo (e.g., ATTO647N-5′-[…]-3′ (SEQ ID NO: 1)) and Donor nucleotide oligo (e.g., bio-5′-AACACATCTCT(-bio)GCCAAACCCCA-bio-3′ (SEQ ID NO: 2)) in each assay well is 1 nM, and 3 nM, respectively.
After incubation with oligo mix, 5 μL of pre-blocked Europium-streptavidin reagent is dispensed to each assay well, assay plates are again mixed and kept at ambient temperature for one hour, protected from light.
The generated signal is measured with BMG Pherastar microtiter plate reader with a TRF light unit, using excitation at 340 nm, an integration time of 200 μs, and a delay time of […], before detection at 620 nm and 665 nm. The ratio of donor- and acceptor-fluorescence is used as a measure of the generated transcript product (i.e. enzymatic activity).

Chain of POLRMT (O00411 42-1230): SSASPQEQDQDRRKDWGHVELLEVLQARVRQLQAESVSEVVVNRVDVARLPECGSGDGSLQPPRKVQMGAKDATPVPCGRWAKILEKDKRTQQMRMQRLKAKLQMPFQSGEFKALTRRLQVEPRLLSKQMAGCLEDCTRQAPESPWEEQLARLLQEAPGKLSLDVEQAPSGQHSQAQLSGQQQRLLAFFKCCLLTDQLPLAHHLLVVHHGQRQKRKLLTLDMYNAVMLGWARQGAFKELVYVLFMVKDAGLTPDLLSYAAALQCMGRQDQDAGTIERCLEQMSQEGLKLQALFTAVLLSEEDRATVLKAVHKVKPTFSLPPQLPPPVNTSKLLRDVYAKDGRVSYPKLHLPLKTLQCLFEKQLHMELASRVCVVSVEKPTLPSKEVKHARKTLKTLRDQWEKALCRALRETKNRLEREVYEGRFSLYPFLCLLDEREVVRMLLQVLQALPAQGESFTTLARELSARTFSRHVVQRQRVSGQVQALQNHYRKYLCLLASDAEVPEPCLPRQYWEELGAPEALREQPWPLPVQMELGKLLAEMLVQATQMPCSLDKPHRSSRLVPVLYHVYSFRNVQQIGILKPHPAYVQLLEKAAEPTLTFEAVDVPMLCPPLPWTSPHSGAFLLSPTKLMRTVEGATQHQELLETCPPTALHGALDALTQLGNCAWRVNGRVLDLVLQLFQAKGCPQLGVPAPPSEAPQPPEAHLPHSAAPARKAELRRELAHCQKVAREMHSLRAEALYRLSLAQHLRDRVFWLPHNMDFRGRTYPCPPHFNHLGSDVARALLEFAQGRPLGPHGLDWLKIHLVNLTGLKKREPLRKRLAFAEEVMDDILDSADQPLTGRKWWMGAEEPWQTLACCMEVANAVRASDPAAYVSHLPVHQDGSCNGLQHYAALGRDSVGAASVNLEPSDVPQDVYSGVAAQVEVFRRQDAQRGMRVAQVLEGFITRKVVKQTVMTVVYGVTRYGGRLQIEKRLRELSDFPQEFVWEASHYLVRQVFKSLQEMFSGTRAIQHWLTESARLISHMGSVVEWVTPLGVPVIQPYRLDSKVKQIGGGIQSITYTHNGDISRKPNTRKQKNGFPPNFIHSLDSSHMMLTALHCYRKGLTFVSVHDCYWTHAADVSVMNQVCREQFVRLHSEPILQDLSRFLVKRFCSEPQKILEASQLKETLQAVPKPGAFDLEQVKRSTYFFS

Row | SMILES | IC50
1 | Cc1ccccc1-c1ccnc2cc(CN(C)C(=O)C3CCCC3)ccc12 [Example 24, N-methyl-N-((4-(o-tolyl)quinolin-7-yl)methyl)cyclopentanecarboxamide] | 10 µM
2 | Cc1ccccc1-c1ccnc2cc(CN3CCCC3=O)ccc12 [Example 25] | > 100 µM
3 | Cc1ccccc1-c1ccnc2cc(NC(C)C(=O)N3CCCCC3)ccc12 (single isomer, unassigned) [Example 52, 1-(piperidin-1-yl)-2-((4-(o-tolyl)quinolin-7-yl)amino)propan-1-one] | > 100 µM
4 | Cc1ccccc1-c1ccnc2cc(CN(C)S(=O)(=O)c3ccccc3)ccc12 [Example 23, N-methyl-N-((4-(o-tolyl)quinolin-7-yl)methyl)benzenesulfonamide] | > 100 µM
5 | CC(=O)N1CCN(Cc2ccc3c(-c4ccccc4C)ccnc3c2)CC1 [Example 21, 1-(4-((4-(o-tolyl)quinolin-7-yl)methyl)piperazin-1-yl)ethan-1-one] | > 100 µM
6 | Cc1ccccc1-c1ccnc2cc(C(=O)NCc3ccccc3)ccc12 [Example 6, N-benzyl-4-(o-tolyl)quinoline-7-carboxamide] | 90 µM
7 | Cc1ccccc1-c1ccnc2cc(CC(=O)O)ccc12 [Example 29, 2-(4-(o-tolyl)quinolin-7-yl)acetic acid] | 97 µM
8 | CNC(=O)Cc1ccc2c(-c3ccccc3C)ccnc2c1 [Example 44, N-methyl-2-(4-(o-tolyl)quinolin-7-yl)acetamide] | > 100 µM
9 | Cc1ccccc1-c1ccnc2cc(C(N)=O)ccc12 [Example 2, 4-(o-tolyl)quinoline-7-carboxamide] | > 100 µM
10 | COC(=O)NCc1ccc2c(-c3ccccc3C)ccnc2c1 [Example 15, methyl ((4-(o-tolyl)quinolin-7-yl)methyl)carbamate] | 59 µM
11 | Cc1ccccc1-c1ccnc2cc(NC(C)C(=O)N3CCOCC3)ccc12 (stereo not shown) [Example 46, 1-morpholino-2-((4-(o-tolyl)quinolin-7-yl)amino)propan-1-one] | 8 µM
12 | Cc1ccccc1-c1ccnc2cc(CNS(C)(=O)=O)ccc12 [Example 22, N-((4-(o-tolyl)quinolin-7-yl)methyl)methanesulfonamide] | 72 µM
13 | Cc1ccccc1-c1ccnc2cc(NC(C)C(=O)N(C)C)ccc12 (stereo not shown) [Example 47, N,N-dimethyl-2-((4-(o-tolyl)quinolin-7-yl)amino)propanamide] | 26 µM
14 | Cc1ccccc1-c1ccnc2cc(C(C)OCC(=O)O)ccc12 (stereo not shown) [Example 54, 2-(1-(4-(o-tolyl)quinolin-7-yl)ethoxy)acetic acid] | > 100 µM
15 | Cc1ccccc1-c1ccnc2cc(CC(C)C(=O)N3CCCCC3)ccc12 (single isomer, unassigned) [Example 35, 2-methyl-1-(piperidin-1-yl)-3-(4-(o-tolyl)quinolin-7-yl)propan-1-one] | 70 µM
16 | Cc1ccccc1-c1ccnc2cc(C(=O)N(C)C)ccc12 [Example 4, N,N-dimethyl-4-(o-tolyl)quinoline-7-carboxamide] | > 100 µM
17 | Cc1ccccc1-c1ccnc2cc(N(C)C)ccc12 [Example 16, N,N-dimethyl-4-(o-tolyl)quinolin-7-amine] | 7 µM
18 | Cc1ccccc1-c1ccnc2cc(CC(=O)N3CCN(C)CC3)ccc12 [Example 39, 1-(4-methylpiperazin-1-yl)-2-(4-(o-tolyl)quinolin-7-yl)ethan-1-one] | > 100 µM
19 | COCCc1ccc2c(-c3ccccc3C)ccnc2c1 [Example 31, 7-(2-methoxyethyl)-4-(o-tolyl)quinoline] | 6 µM
